Type in all cases: cell-based, Human
Holding throughout (conditions): steatosis-induced (OA/PA) Huh-7 cells; 10 μM; 24 hours

The subject of one assay is Sirt1 mRNA. Nature of the assay: qRT-PCR Sirt1 mRNA level in steatosis-induced Huh-7 cells. As to the method:
(§1) In Experimental Example 5, the Huh-7 cells were plated in 6 wells at 4×10^5 cells/mL and incubated under an atmosphere containing 5% CO2 at 37° C.
(§2) One day later, the cell density approached about 80 to 90%. The medium was changed to an FBS-free RPMI1640 medium, and incubated under an atmosphere containing 5% CO2 at 37° C. for 24 hours.
(§3) Huh-7 cells of each well, excluding control cells, were pretreated with an OA/PA mixture for one hour to induce steatosis. The control cells were pretreated with 1% FA-free BSA.
(§4) Each well was treated with 10 μM of a test compound, and then the cells were incubated for 24 hours. The control cells and OA/PA-treated cells were treated with DMSO. Cells of a positive control were treated with 10 μM of resveratrol, 10 μM of piperine, and 10 μM of YU2014. The medium was entirely aspirated, and the cells were washed with PBS (phosphate buffered saline, Corning, Manassas, Va., USA) two times.
(§5) Total RNA was extracted using a RNeasy RNA isolation kit (Qiagen, Hilden, Germany).
(§6) 10 μL of β-mercaptoethanol (Sigma-Aldrich) per 1 mL of lysis buffer was added, thereby preparing an RNA lysis buffer. […]
(§7) An RNA concentration was measured at O.D. 260 nm using a nanophotometer N60 (Implen, Munich, Germany). The concentration and purity of RNA were measured at O.D. 260/280 nm and calculated as a ratio. […]
(§8) Quantitative analyses for the genes in Table 3 were performed.
(In general: In qPCR the cycle at which signal appears reflects the starting amount.)

The next assay relates to Ck2α mRNA. Kind of assay: qRT-PCR Ck2α mRNA level in steatosis-induced Huh-7 cells. As to the method:
as §1, §2, §3, §4, §5, §6, §7, §8

Another assay has as its system Pparα mRNA. Kind of assay: qRT-PCR Pparα mRNA level in steatosis-induced Huh-7 cells. As for the experimental part: as §1, §2, §3, §4, §5, §6, §7, §8
A further assay deals with Fgf21 mRNA. Kind of assay: qRT-PCR Fgf21 mRNA level in steatosis-induced Huh-7 cells. As to the method: as §1, §2, §3, §4, §5, §6, §7, §8

`CCC(=O)N1CCN(C(=O)/C=C/C=C/c2ccc(OC)cc2)CC1` [R-18, (2E,4E)-5-(4-methoxyphenyl)-1-(4-propionylpiperazine-1-yl)penta-2,4-dien-1-one]: the “Sirt1 mRNA level (FIG. 16)” value in the assay with Sirt1 mRNA is listed as “greatly increased”. The “Ck2α mRNA level (FIG. 19)” value in the assay on Ck2α mRNA is given as “greatly reduced”.

Regarding `CCOC(=O)N1CCN(C(=O)/C=C/C=C/c2ccc(OC)cc2)CC1` [R-23, Ethyl 4-((2E,4E)-5-(4-methoxyphenyl)penta-2,4-dienoyl)piperazine-1-carboxylate], in the assay on Sirt1 mRNA, the “Sirt1 mRNA level (FIG. 16)” value is given as “greatly increased”. Take `CCOC(=O)N1CCN(C(=O)/C=C/C=C/c2ccc(SC)cc2)CC1` [R-24, Ethyl 4-((2E,4E)-5-(4-(methylthio)phenyl)penta-2,4-dienoyl)piperazine-1-carboxylate]: the “Ck2α mRNA level (FIG. 19)” value with Ck2α mRNA is “greatly reduced”. Take `O=C(/C=C/C=C/c1ccc2c(c1)OCO2)N1CCCCC1` [piperine, Piperine]: in the assay on Pparα mRNA, the “Pparα mRNA level (FIG. 10)” value is reported as “no effect”. Moreover, the “Fgf21 mRNA level (FIG. 12)” value in the assay with Fgf21 mRNA is “no effect”.

These data come from patent US20200157048A1, “(2E,4E)-5-PHENYL-PENTA-2,4-DIEN-1-ONE DERIVATIVE” (BIOWAY., INC, priority 2018, published 2020).
